What was measured:
[1] = Cytotoxicity against LPS-treated mouse BV2 cells assessed as cell viability at 20 uM relative to control; type: cell-based, BV-2; settings: read-out: Activity
[2] = tested on: BV-2; assay: Antineuroinflammatory activity in mouse BV2 cells assessed as inhibition of LPS-induced nitric oxide production after 24 hrs by Griess assay; type: functional, cell-based; settings: BV-2, 24 h

| Compound | viability at 20 µM [1] [%] | IC50 [2] [µM] |
| --- | --- | --- |
| COc1cc(/C=C/C=C/C(=O)CCc2ccc(O)cc2)ccc1O | 115 | 13.4 |
| COc1cc(CC[C@H]2C[C@@H](O)C[C@@H](c3ccc(O)c(OC)c3)O2)ccc1O | 109 | 95.1 |
| COc1cc(CC[C@@H](O)C[C@H](O)CCc2ccc(O)c(O)c2)ccc1O | 99.2 | 89.7 |
| O=C(/C=C/C=C/c1ccc(O)c(O)c1)CCc1ccc(O)c(O)c1 | 24.6 | 7.84 |
| Oc1ccc(CC[C@H]2C[C@H](O)C[C@@H](c3ccc(O)cc3)O2)cc1 | 95.6 | 38.1 |
| O=C(/C=C/c1ccc(O)cc1)C[C@H](O)CCc1ccc(O)cc1 | 99.4 | 57.1 |
| Oc1ccc(/C=C/[C@H]2C[C@H](O)C[C@@H](c3ccc(O)cc3)O2)cc1 | 91.4 | 18.6 |
| O=C(/C=C/C=C/c1ccc(O)c(O)c1)CCc1ccc(O)cc1 | 104 | 14.4 |
| CNC(=N)NCCC[C@H](N)C(=O)O [TILARGININE] | 103 | – |
| Oc1ccc(CC[C@H]2C[C@@H](O)C[C@@H](c3ccc(O)cc3)O2)cc1 | 96.8 | 39.7 |
| COc1cc(/C=C/C(=O)/C=C/c2ccc(O)cc2)ccc1O | 25.5 | 5.99 |
| COc1ccc(/C=C/C=C/C(=O)CCc2ccc(O)cc2)cc1 | 18.5 | 8.44 |
| COc1cc(CC[C@H]2C[C@H](O)C[C@@H](c3ccc(O)c(OC)c3)O2)ccc1O | 116 | 45.9 |
